Here are results for 17 compounds from patent US8367713B2, “Inhibition and dispersion of bacterial biofilms with imidazole-triazole derivatives” (North Carolina State University, priority 2008, dated 2013).

Assay [1] has as its system MRSA. Briefly: Biofilm inhibition at 100 μM, MRSA. The format is cell-based. The settings on record: Staphylococcus aureus, biofilm inhibition, 100 μM, read-out: MRSA % Inhibition. As for the experimental part: Procedure to Determine the Inhibitory Effect of Test Compounds on E. faecium, MRSA, S. epidermidis, PAO1, PA14, E. Coli and MDRAB Biofilm Formation: Inhibition assays were performed by taking an overnight culture of bacterial strain and subculturing it at an OD600 of 0.01 into the necessary media (brain heart infusion for E. faecium, tryptic soy broth with a 0.5% glucose supplement (TSBG) for MRSA, Luria-Bertani (LB) media for MDRAB, Luria-Bertani media without NaCl (LBNS) for PAO1 and PA14, Luria-Bertani (LB) media for E. coli and tryptic soy broth with a 0.5% glucose supplement and a 3.0% NaCl supplement (TGN) for S. epidermidis. Stock solutions of predetermined concentrations of the test compound were then made in the necessary media. These stock solutions were aliquoted (100 μL) into the wells of the 96-well PVC microtiter plate. Sample plates were then wrapped in GLAD Press n′ Seal® followed by an incubation under stationary conditions for 24 h at 37° C. After incubation, the media was discarded from the wells and the plates were washed thoroughly with water. Plates were then stained with 100 μL of 0.1% solution of crystal violet (CV) and then incubated at ambient temperature for 30 min. Plates were washed with water again and the remaining stain was solubilized with 200 μL of 95% ethanol. A sample of 125 μL of solubilized CV stain from each well was transferred to the corresponding wells of a polystyrene microtiter dish. Biofilm inhibition was quantitated by measuring the OD540 of each well in which a negative control lane wherein no biofilm was formed served as a background and was subtracted out.
Biofilm inhibition has been tested for the following compounds, each of which was tested at a concentration of 100 μM.

Assay [2] relates to A. baumannii biofilms. Briefly: Static bacterial biofilm inhibition assay (crystal violet), A. baumannii. Format: cell-based, Acinetobacter baumannii. Also noted: inhibition of A. baumannii biofilm development: dose or concentration left out as unconfirmed. The settings on record: for IC50: read-out: IC50 of biofilm inhibition, A. baumannii. As to the method: (§1) Each 2-AIT conjugate was initially screened at 300 μM for their ability to inhibit P. aeruginosa PAO1 and PA14 biofilms, A. baumannii biofilms and B. bronchiseptica Rb50 biofilms using a crystal violet reporter assay (G. A. O'Toole, R. Kolter, Molecular Microbiology 1998, 2, 295-304). […] This is an order of magnitude increase in activity when compared to DHS (J. J. Richards, R. W. Huigens, T. E. Ballard, A. Basso, J. Cavanagh, C. Melander, Chemical Communications 2008, 14, 1698-1700). […] 6 also dispersed pre-formed A. baumanni biofilms with an EC50 of 400 μM (FIG. 2A).
(§2) General Static Bacterial Biofilm Inhibition Assay Procedure for A. baumannii, P. aeruginosa, B. bronchiseptica and S. aureus: Biofilm inhibition assays were performed by taking an overnight culture of bacterial strain and subculturing it at an OD600 of 0.01 into the necessary growth liquid medium (LB for A. baumannii, LBNS for P. aeruginosa, Stainer Scholte medium that was supplemented with […] of 100× nutrient complex for B. bronchiseptica and TSBG for S. aureus) for the strain. The compound being tested was then added at a predetermined concentration and then aliquoted (100 μL) into the wells of a 96-well PVC microtiter plate (Wells not used for samples are filled with 100 μL of de-ionized water). Plates were then wrapped in GLAD Press n′ Seal® and incubated under stationary conditions at 37° C. After 24 hours, the media was discarded from the wells and the plates were washed thoroughly with tap water. Plates were then stained with 100 μL of 0.1% solution of crystal violet (CV) and then incubated at an ambient temperature for 30 minutes. Sample plates were then washed with tap water again and the remaining stain was solubilized with 200 μl, of 95% ethanol. Biofilm inhibition was quantitated by measuring the OD540 for each well by transferring 125 μL of the solubilized CV stain into a polystyrene microtiter dish for analysis.

Assay [3] concerns P. aeruginosa PA14 biofilms. Description: Static bacterial biofilm inhibition assay (crystal violet), PA14. Format: cell-based. The settings on record: Pseudomonas aeruginosa; P. aeruginosa PA14. As for the experimental part: as §1, §2
For assay [4], the system named is P. aeruginosa PAO1 biofilms. Briefly: Static bacterial biofilm inhibition assay (crystal violet), PAO1. The format is cell-based. The conditions noted are these: Pseudomonas aeruginosa. As for the experimental part:
as §1, §2

Assay [5] has as its system Staphylococcus aureus biofilm. Description: Static bacterial biofilm inhibition assay (crystal violet), S. aureus. Format: cell-based. As to the method:
as §2

Assay [6] concerns pre-formed A. baumannii biofilms. Briefly: Static bacterial biofilm dispersion assay, A. baumannii. Format: cell-based. The conditions noted are these: Acinetobacter baumannii. As for the experimental part: (§3) General Static Bacterial Biofilm Dispersion Assay Procedure for A. baumannii, P. aeruginosa and S. aureus: Dispersion assays were performed by taking an overnight culture of bacterial strain and subculturing it at an OD600 of 0.01 into the necessary growth liquid medium. The resulting bacterial suspension was aliquoted (100 μL) into the wells of a 96-well PVC microtiter plate. Plates were then wrapped in GLAD Press n′ Seal® followed by an incubation under stationary conditions at an ambient temperature. After 24 hours, the media was discarded from the wells and the plates were washed thoroughly with tap water. Predetermined concentrations of the compound were then made in the same medium used to initially grow the biofilms and then aliquoted (100 μL) into the wells of the 96-well PVC microtiter plate with the established biofilms. Plates were then wrapped in GLAD Press n′ Seal® and incubated under stationary conditions at 37° C. After 24 hours, the media was discarded from the wells and the plates were washed thoroughly with tap water. Plates were then stained with 100 μL of 0.1% solution of crystal violet (CV) and then incubated at room temperature for 30 minutes. Plates were then washed with tap water again and the remaining stain was solubilized with 200 μL of 95% ethanol. Biofilm dispersion was quantitated by measuring the OD540 for each well by transferring 125 μL of the solubilized CV stain into a polystyrene microtiter dish for analysis.

The subject of assay [7] is B. bronchiseptica Rb50 biofilms. Briefly: Static bacterial biofilm inhibition assay (crystal violet), Rb50. The format is cell-based. The conditions noted are these: Bordetella bronchiseptica, RB50BIOFILMS
As for the experimental part: as §1, §2

In assay [8] the test system is pre-formed S. aureus biofilms. Briefly: Static bacterial biofilm dispersion assay, S. aureus. Format: cell-based. The conditions noted are these: Staphylococcus aureus. As for the experimental part: as §3
In assay [9] the test system is pre-formed B. bronchiseptica Rb50 biofilms. Briefly: Static bacterial biofilm dispersion assay, Rb50. Format: cell-based. The settings on record: Bordetella bronchiseptica. As for the experimental part: as §3
General Static Bacterial Biofilm Dispersion Assay Procedure for B. bronchiseptica: This procedure is identical to the general dispersion procedure described above except that initial biofilm formation in the absence of the test compound was carried out at 37° C.

Assay [10] concerns A. baumannii, PAO1, PA14, Rb50, S. aureus (each bacterial strain). Description: Planktonic growth curves and colony counts, each bacterial strain. The format is cell-based. The settings on record: each bacterial strain grown in the presence of compound. As to the method: The OD600 was recorded at 1, 3, 4, 5, 6 and 24 hours.
General Colony Count Procedure for A. baumannii, P. aeruginosa, B. bronchiseptica and S. aeureus: Colony counts were performed by incubating either bacterial strain in the presence and absence of the test compound at 37° C. in culture tubes until the sample with the absence of the test compound reached an OD600 of 0.40 from a starting OD600 of 0.01. This typically took three to four hours. Once the OD600 of approximately 0.40 was observed, 100 μL were taken from each culture tube from which serial dilutions were made. Then, 10 μL were removed from each serial dilution and plated out on a square gridded petri-dish followed by 16 hours of incubation at 37° C. period (48 hours for B. bronchiseptica) to grow countable colonies. Viable bacteria were quantified through employment of the track-dilution method (Jett et al., Bio Techniques. 1997, 23, 648-650).

Assay [11] has as its system pre-formed P. aeruginosa PAO1 biofilms. Description: Static bacterial biofilm dispersion assay, PAO1. The format is cell-based. The conditions noted are these: Pseudomonas aeruginosa. As for the experimental part:
as §3

Assay [12] has as its system pre-formed P. aeruginosa PA14 biofilms. Briefly: Static bacterial biofilm dispersion assay, PA14. The format is cell-based. The settings on record: Pseudomonas aeruginosa. As to the method: as §3

Counter-ions that a name gives are not always drawn.

A word on the inhibition: it is the change of the read-out against control, counted positive when it falls. For `CC(C)(C)NC(=O)Cn1cc(CCCc2c[nH]c(N)n2)nn1` [2-{4-[3-(2-amino-1H-imidazol-4-yl)-propyl]-[1,2,3]triazol-1-yl}-N-tert-butyl-acetamide hydrochloride], in [1], the inhibition at 100 µM is 28.2 ± 15%. For `C/C(=C\c1ccccc1)Cn1cc(CCCn2ccnn2)nn1` [Compound 9, 1-(2-Methyl-3-phenyl-allyl)-4-(3-[1,2,3]triazol-1-yl-propyl)-1H-[1,2,3]triazole], the inhibition at 800 µM in assay [2] (Acinetobacter baumannii, at the highest concentration studied (800 μM), read-out: inhibition of A. baumannii biofilm development) was < 30%.

Broadly, the IC50 is the midpoint of a concentration-inhibition curve. As usually defined, the EC50 is the concentration giving half of the maximal effect. Take `C/C(=C\c1ccccc1)Cn1cc(CCCCCCc2c[nH]c(N)n2)nn1` [Compound 12, 4-{6-[1-(2-Methyl-3-phenyl-allyl)-1H-[1,2,3]triazol-4-yl]-hexyl}-1H-imidazol-2-ylamine hydrochloride]: the IC50 stood at 22 µM in assay [3]; 2.7 µM in [4]; 4.6 µM in assay [5]; 6.8 µM in assay [2] (Acinetobacter baumannii); 70 µM in assay [7]. Besides, the EC50 in [6] came to 36 µM; in assay [8] it was 37 µM; in assay [9], 75 µM; in assay [11] it was 51 µM; in [12], 48 µM. The “bactericidal / microbicidal activity (colony counts and growth curves)” value in [10] is on record as “not due to microbicidal activity”. On to `C/C(=C\c1ccccc1)Cn1cc(Cc2c[nH]c(N)n2)nn1` [Compound 8, 4-[1-(2-Methyl-3-phenyl-allyl)-1H [1,2,3]triazol-4-ylmethyl]-1H-imidazol-2-ylamine hydrochloride], for which the “inhibition of A. baumannii biofilm development” value in [2] ((highest concentration tested)) is given as < 50%. On to `Nc1nc(CCCc2cn(CC(=O)NC3CCCCC3)nn2)c[nH]1` [2-{4-[3-(2-amino-1H-imidazol-4-yl)-propyl]-[1,2,3]triazol-1-yl}-N-cyclohexyl-acetamide hydrochloride], for which, in [1], the inhibition at 100 µM came out at 40.5 ± 4%. Still for that read-out and setting: under `COc1ccc(CNC(=O)Cn2cc(CCCc3c[nH]c(N)n3)nn2)cc1` [2-{4-[3-(2-amino-1H-imidazol-4-yl)-propyl]-[1,2,3]triazol-1-yl}-N-(4-methoxy-benzyl)-acetamide hydrochloride] stands 71 ± 3%; under `Nc1nc(CCCc2cn(CC(=O)Nc3ccccc3)nn2)c[nH]1` [2-{4-[3-(2-amino-1H-imidazol-4-yl)-propyl]-[1,2,3]triazol-1-yl}-N-phenyl-acetamide hydrochloride], 41.9 ± 2%.

Regarding `C/C(=C\c1ccccc1)Cn1cc(CCc2c[nH]c(N)n2)nn1` [Compound 7, 4-{2-[1-(2-Methyl-3-phenyl-allyl)-1H-[1,2,3]triazol-4-yl]-ethyl}-1H-imidazol-2-ylamine hydrochloride], the half-maximal inhibitory concentration (IC50) in [2] (Acinetobacter baumannii) turned out to be 220 µM.

For `CC(C)NC(=O)Cn1cc(CCCc2c[nH]c(N)n2)nn1` [2-{4-[3-(2-amino-1H-imidazol-4-yl)-propyl]-[1,2,3]triazol-1-yl}-N-isopropyl-acetamide hydrochloride], the inhibition at 100 µM in assay [1] came to 36.4 ± 3%. Same read-out and setting: under `Nc1nc(CCCc2cn(CC(=O)NCCCc3ccccc3)nn2)c[nH]1` [2-{4-[3-(2-amino-1H-imidazol-4-yl)-propyl]-[1,2,3]triazol-1-yl}-N-(3-phenyl-propyl)-acetamide hydrochloride] stands 64.8 ± 2%; under `CCCCCCNC(=O)Cn1cc(CCCc2c[nH]c(N)n2)nn1` [2-{4-[3-(2-amino-1H-imidazol-4-yl)-propyl]-[1,2,3]triazol-1-yl}-N-hexyl-acetamide hydrochloride], 83.1 ± 16%.

Regarding `COc1ccc(CCNC(=O)Cn2cc(CCCc3c[nH]c(N)n3)nn2)cc1` [2-{4-[3-(2-amino-1H-imidazol-4-yl)-propyl]-[1,2,3]triazol-1-yl}-N-[2-(4-methoxy-phenyl)-ethyl]-acetamide hydrochloride], the inhibition at 100 µM in assay [1] worked out at 18.3 ± 5%. Regarding `Nc1ncc[nH]1` [2-Aminomidazole, reference compound], the “activity against A. baumannii biofilm development” value in [2] (up to 800 μM (highest concentration tested)) is “devoid of activity”. Turning to `Nc1nc(CCCc2cn(CC(=O)N3CCCC3)nn2)c[nH]1` [2-{4-[3-(2-amino-1H-imidazol-4-yl)-propyl]-[1,2,3]triazol-1-yl}-1-pyrrolidin-1-yl-ethanone hydrochloride], the inhibition at 100 µM in assay [1] was 35.4 ± 5%. Still for that read-out and setting: under `COc1ccc(NC(=O)Cn2cc(CCCc3c[nH]c(N)n3)nn2)cc1` [2-{4-[3-(2-amino-1H-imidazol-4-yl)-propyl]-[1,2,3]triazol-1-yl}-N-(4-methoxy-phenyl)-acetamide hydrochloride] stands 41.1 ± 2%; under `Nc1nc(CCCc2cn(CC(=O)NCc3ccccc3)nn2)c[nH]1` [2-{4-[3-(2-amino-1H-imidazol-4-yl)-propyl]-[1,2,3]triazol-1-yl}-N-benzyl-acetamide hydrochloride], 58.1 ± 2%.

Take `Nc1nc(CCCc2cn(CC(=O)NC3CCCC3)nn2)c[nH]1` [2-{4-[3-(2-amino-1H-imidazol-4-yl)-propyl]-[1,2,3]triazol-1-yl}-N-cyclopentyl-acetamide hydrochloride]: in assay [1], the inhibition at 100 µM was determined as 64 ± 4%.
